# Test results reported in the supplement of paper PMC4862054.
# How the values were obtained:
# Assay in all cases: normalised response (% of control), CellTox Green; higher = less cell death (100 = DMSO, 0 = benzethonium chloride kill control)
# Details in all cases: incubation time: 72 h
# [1] = test system: MDA-MB-453
# Procedure, shortened: (§1)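 CellTox Green fluorescence (485/520 nm) and, after 10 min at room temperature, CellTiter-Glo luminescence were read from breast cancer cell lines incubated 72 h in 384-well plates. Cells were seeded as 20 µl suspension onto compound at 5 concentrations in 10-fold steps over a 10,000-fold range chosen per compound. Each plate was normalised to 0.1 % DMSO (100) and a positive kill control (0). Values are normalised signals, one per concentration.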
# [2] = test system: BT-474
# Procedure, shortened: as §1
# [3] = test system: CAL-51
# Procedure, shortened: as §1
# [4] = test system: CAL-85-1
# Procedure, shortened: as §1
# [5] = test system: HCC1599
# Procedure, shortened: as §1
# [6] = test system: MCF-10A
# Procedure, shortened: as §1
# [7] = test system: MFM-223
# Procedure, shortened: as §1
# [8] = test system: MDA-MB-468
# Procedure, shortened: as §1
# [9] = test system: CAL-148
# Procedure, shortened: as §1
# [10] = test system: DU-4475
# Procedure, shortened: as §1
# [11] = test system: MDA-MB-436
# Procedure, shortened: as §1
# [12] = test system: MDA-MB-231
# Procedure, shortened: as §1
# [13] = test system: Hs578T
# Procedure, shortened: as §1
# [14] = test system: HCC1143
# Procedure, shortened: as §1
# [15] = test system: HDQ-P1
# Procedure, shortened: as §1
# [16] = test system: CAL-120
# Procedure, shortened: as §1
# [17] = test system: BT-549
# Procedure, shortened: as §1
# [18] = test system: HCC1937
# Procedure, shortened: as §1
Compound,normalised response [1],normalised response [2],normalised response [3],normalised response [4],normalised response [5],normalised response [6],normalised response [7],normalised response [8],normalised response [9],normalised response [10],normalised response [11],normalised response [12],normalised response [13],normalised response [14],normalised response [15],normalised response [16],normalised response [17],normalised response [18]
O=C(Nc1c[nH]nc1-c1nc2ccc(CN3CCOCC3)cc2[nH]1)NC1CC1 [AT9283] (1000 nM),101%,89.1%,56%,37.8%,105%,88.4%,75%,65.6%,83.9%,106%,77.6%,40.6%,83.2%,119%,88.2%,57.7%,70.5%,116%
CC[C@@]1(O)C(=O)OCc2c1cc1n(c2=O)Cc2cc3c(CN(C)C)c(O)ccc3nc2-1 [Topotecan] (100 nM),108%,103%,65%,100%,90.7%,106%,98%,91.8%,37.6%,94.9%,76.5%,108%,98.7%,74.7%,103%,98.9%,92.8%,52.5%
COc1ccc(-c2cc3c(C)nc(N)nc3n([C@H]3CC[C@H](OCCO)CC3)c2=O)cn1 (10000 nM),61.1%,-9.27%,17.6%,52.1%,92.1%,72.4%,52.8%,59.9%,-9.66%,67.2%,100%,4.33%,28.7%,91.1%,-2.73%,75.8%,0.06%,41.4%
COc1nc(N)nc2c1ncn2[C@@H]1O[C@H](CO)[C@@H](O)[C@@H]1O [Nelarabine] (10000 nM),87%,96%,111%,138%,96.5%,83.2%,87.6%,122%,100%,98.5%,91%,97.9%,91.4%,99.1%,111%,93.8%,87.5%,94.5%
Cc1c(CN2CCN(C(=O)[C@H](C)O)CC2)sc2c(N3CCOCC3)nc(-c3cnc(N)nc3)nc12 [GDC-0980] (1000 nM),104%,85.6%,90.8%,97.7%,99.9%,100%,76.5%,117%,68.3%,98.7%,102%,98.8%,107%,85%,103%,103%,108%,107%
O=C1c2c(O)ccc(O)c2C(=O)c2c(NCCNCCO)ccc(NCCNCCO)c21 [Mitoxantrone] (100 nM),104%,101%,92.8%,101%,91%,113%,101%,158%,82.3%,99.1%,87.8%,94.8%,106%,109%,101%,-30.1%,117%,117%
COc1cc(CCc2cc(NC(=O)c3ccc(N4CC(C)NC(C)C4)cc3)n[nH]2)cc(OC)c1 (centres undefined) [AZD4547] (100 nM),100%,96.5%,95.6%,108%,90.6%,105%,97.4%,117%,101%,97.8%,91%,90.1%,94%,82%,89.4%,99.3%,118%,113%
CCN(CC)CCNC(=O)c1c(C)[nH]c(/C=C2\C(=O)Nc3ccc(F)cc32)c1C [Sunitinib] (1000 nM),104%,95%,106%,66.5%,105%,80.6%,99.2%,66.4%,85.4%,99.7%,106%,124%,95.9%,82.8%,101%,98.2%,104%,93.9%
